According to ChEMBL document CHEMBL5154776, “Discovery of Potent and Orally Bioavailable Platelet-Derived Growth Factor Receptor (PDGFR) Inhibitors for the Treatment of Osteosarcoma” (J Med Chem, 2022):
Activity calls are given as the source filed them. The calls are words filed in the database; no cut-off is given here.

Tests used:
HOS-TE85 [1] = experiment: Induction of apoptosis in human MNNG/HOS cells xenografted in BALB/c nude mouse at 15 to 30 mg/kg/day, po dosed for 14 days by immunohistochemistry analysis; assay type: functional, organism-based; conditions: dose lower […], dose upper 30.0 mg/kg/day, time 14.0 day
MG-63 [2] = experiment: Antiinvasive activity against human MG-63 cells assessed as reduction in cell spreading area upto 48 hrs by DAPI staining based immunofluorescence microscopic analysis; assay type: functional; conditions: dose 0.1-0.4 µM, DDE = dose-dependent effect
MG-63 [3] = experiment: Inhibition of cell migration in human MG-63 cells at 0.1 to 0.4 uM measured for 48 hrs scratch wound healing migration assay; assay type: functional, cell-based; conditions: dose 0.1-0.4 µM
[4] = target: T1, Platelet-derived growth factor receptor beta (Homo sapiens, UniProt P09619); experiment: Inhibition of PDGFRbeta in PDGF AA/BB stimulated human MG-63 cells assessed as reduction in fluorescence intensity measured after 48 hrs by DAPI staining based immunofluorescence analysis; assay type: cell-based; conditions: dose 0.1-0.4 µM, DDE = dose-dependent effect
T1 sequence (P09619 whole entry): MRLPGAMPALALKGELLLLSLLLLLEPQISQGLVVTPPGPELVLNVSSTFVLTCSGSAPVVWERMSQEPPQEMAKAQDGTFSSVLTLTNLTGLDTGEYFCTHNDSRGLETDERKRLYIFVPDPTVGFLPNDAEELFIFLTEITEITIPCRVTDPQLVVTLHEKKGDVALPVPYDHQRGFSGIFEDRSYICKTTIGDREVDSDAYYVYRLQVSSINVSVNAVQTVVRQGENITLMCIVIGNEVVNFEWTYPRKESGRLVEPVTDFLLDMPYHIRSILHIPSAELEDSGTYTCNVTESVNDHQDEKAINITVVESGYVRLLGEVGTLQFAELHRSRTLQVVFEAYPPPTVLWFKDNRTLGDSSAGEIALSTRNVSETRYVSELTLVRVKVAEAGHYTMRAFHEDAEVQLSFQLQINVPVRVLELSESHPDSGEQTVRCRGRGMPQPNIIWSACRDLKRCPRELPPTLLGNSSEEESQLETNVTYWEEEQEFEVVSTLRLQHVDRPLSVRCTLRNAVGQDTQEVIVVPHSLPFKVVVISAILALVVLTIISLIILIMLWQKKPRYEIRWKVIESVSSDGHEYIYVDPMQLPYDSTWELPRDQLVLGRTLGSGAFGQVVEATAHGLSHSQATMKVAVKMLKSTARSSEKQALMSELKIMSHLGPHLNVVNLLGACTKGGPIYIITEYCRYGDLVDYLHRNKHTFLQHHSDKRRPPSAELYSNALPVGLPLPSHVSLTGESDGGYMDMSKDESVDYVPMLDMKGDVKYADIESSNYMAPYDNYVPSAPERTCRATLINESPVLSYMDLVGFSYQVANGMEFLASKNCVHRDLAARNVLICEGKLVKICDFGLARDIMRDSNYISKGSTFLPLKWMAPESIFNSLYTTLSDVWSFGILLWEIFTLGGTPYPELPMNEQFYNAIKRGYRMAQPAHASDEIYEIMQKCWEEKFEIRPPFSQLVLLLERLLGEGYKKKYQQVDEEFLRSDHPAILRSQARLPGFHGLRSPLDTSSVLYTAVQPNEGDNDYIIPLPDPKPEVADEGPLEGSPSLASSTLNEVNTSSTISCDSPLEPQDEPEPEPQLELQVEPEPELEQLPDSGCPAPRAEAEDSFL

HOS-TE85 [5] = experiment: Antiproliferative activity against human MNNG/HOS cells xenografted in BALB/c nude mouse assessed as suppression of tumor growth at 15 to 30 mg/kg/day, po dosed for 14 days by immunohistochemistry analysis; assay type: functional, organism-based; conditions: dose lower […], dose upper 30.0 mg/kg/day, time 14.0 day
HOS-TE85 [6] = experiment: Antiinvasive activity against human MNNG/HOS cells assessed as reduction in cell spreading area upto 48 hrs by DAPI staining based immunofluorescence microscopic analysis; assay type: functional; conditions: dose 0.1-0.4 µM, DDE = dose-dependent effect
MG-63 [7] = experiment: Antiinvasive activity against human MG-63 cells assessed as expression of FAK by measuring fluorescence at 0.1 to 0.4 uM upto 48 hrs by DAPI staining based immunofluorescence microscopic analysis; assay type: functional, cell-based; conditions: dose 0.1-0.4 µM
HOS-TE85 [8] = experiment: Inhibition of colony formation in human MNNG/HOS cells at 0.2 uM by crystal violet staining based analysis; assay type: functional, cell-based
HOS-TE85 [9] = experiment: Inhibition of cell migration in human MNNG/HOS cells at 0.1 to 0.4 uM measured for 48 hrs scratch wound healing migration assay; assay type: functional, cell-based; conditions: dose 0.1-0.4 µM
HOS-TE85 [10] = experiment: Inhibition of FAK expression in human MNNG/HOS cells incubated for 48 hrs by Western blot analysis; assay type: functional, cell-based; conditions: dose 0.1-0.4 µM, DDE = dose-dependent effect
MG-63 [11] = experiment: Antimigratory activity against human MG-63 cells assessed as expression of FAK by measuring fluorescence at 0.1 to 0.4 uM upto 48 hrs by DAPI staining based immunofluorescence microscopic analysis; assay type: functional, cell-based; conditions: dose 0.1-0.4 µM
[12] = target: T1, Platelet-derived growth factor receptor beta; experiment: Inhibition of PDGFRbeta phosphorylation in human MNNG/HOS cells incubated for 48 hrs by Western blot analysis; assay type: cell-based
MG-63 [13] = experiment: Inhibition of alpha tubulin expression in human MG-63 cells at 0.1 to 0.4 uM measured after 48 hrs by western blot analysis; assay type: functional, cell-based; conditions: dose 0.1-0.4 µM
MG-63 [14] = experiment: Induction of cell cycle arrest in human MG-63 cells assessed as accumulation of cells at G0/G1 phase incubated for 48 hrs by propidium iodide staining based flow cytometry analysis; assay type: functional; conditions: dose 0.1-0.4 µM, DDE = dose-dependent effect
[15] = target: Focal adhesion kinase 1 (Homo sapiens) (UniProt Q05397); experiment: Inhibition of FAK phosphorylation in human MG-63 cells incubated for 48 hrs by Western blot analysis; assay type: cell-based; conditions: dose 0.1-0.4 µM, DDE = dose-dependent effect
Chain of Focal adhesion kinase 1 (Homo sapiens) (Q05397 2-1052 limits assumed): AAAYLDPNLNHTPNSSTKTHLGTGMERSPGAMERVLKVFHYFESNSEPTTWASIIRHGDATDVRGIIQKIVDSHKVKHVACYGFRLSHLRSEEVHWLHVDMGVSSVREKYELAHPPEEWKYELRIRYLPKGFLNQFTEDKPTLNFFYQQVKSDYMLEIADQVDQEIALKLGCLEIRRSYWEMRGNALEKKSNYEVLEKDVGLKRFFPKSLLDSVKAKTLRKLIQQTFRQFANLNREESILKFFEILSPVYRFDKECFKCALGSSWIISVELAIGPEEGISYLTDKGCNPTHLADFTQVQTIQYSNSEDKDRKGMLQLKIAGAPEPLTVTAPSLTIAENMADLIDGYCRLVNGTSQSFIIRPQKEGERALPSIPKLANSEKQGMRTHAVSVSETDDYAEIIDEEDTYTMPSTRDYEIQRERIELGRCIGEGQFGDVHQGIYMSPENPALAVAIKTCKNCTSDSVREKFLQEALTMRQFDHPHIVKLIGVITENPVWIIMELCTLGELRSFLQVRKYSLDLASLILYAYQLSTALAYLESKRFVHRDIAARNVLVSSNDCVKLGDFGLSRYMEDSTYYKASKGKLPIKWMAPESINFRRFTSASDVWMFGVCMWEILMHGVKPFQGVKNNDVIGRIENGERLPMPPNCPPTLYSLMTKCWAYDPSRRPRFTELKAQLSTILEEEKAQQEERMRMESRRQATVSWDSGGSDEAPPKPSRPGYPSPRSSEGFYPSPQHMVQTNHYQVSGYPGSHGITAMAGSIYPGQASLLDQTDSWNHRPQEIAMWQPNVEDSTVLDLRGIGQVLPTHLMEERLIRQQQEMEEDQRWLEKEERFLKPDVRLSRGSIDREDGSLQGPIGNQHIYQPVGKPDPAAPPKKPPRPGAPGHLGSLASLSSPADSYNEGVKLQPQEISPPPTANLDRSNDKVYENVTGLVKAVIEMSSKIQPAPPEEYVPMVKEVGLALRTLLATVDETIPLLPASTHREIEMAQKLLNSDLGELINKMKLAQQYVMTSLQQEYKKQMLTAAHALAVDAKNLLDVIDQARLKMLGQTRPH

[16] = target: T1, Platelet-derived growth factor receptor beta; experiment: Inhibition of PDGFRbeta-mediated downstream signalling in human MNNG/HOS cells assessed as suppression of STAT3 phosphorylation at 0.1 to 0.4 uM measured after 48 hrs by western blot analysis; assay type: cell-based; conditions: dose 0.1-0.4 µM
MG-63 [17] = experiment: Inhibition of FAK expression in human MG-63 cells incubated for 48 hrs by Western blot analysis; assay type: functional, cell-based; conditions: dose 0.1-0.4 µM, DDE = dose-dependent effect
MG-63 [18] = experiment: Inhibition of cell migration in human MG-63 cells assessed as reduction of cell mobility after 48 hrs by scratch-wound healing assay; assay type: functional, cell-based; conditions: dose 0.1-0.4 µM, DDE = dose-dependent effect
HOS-TE85 [19] = experiment: Inhibition of cell adhesion in human MNNG/HOS cells at 0.1 to 0.4 uM measured after 48 hrs by crystal violet staining based analysis; assay type: functional; conditions: dose 0.1-0.4 µM
MG-63 [20] = experiment: Inhibition of alpha tubulin expression in human MG-63 cells assessed as effect on microtubule network at 0.1 to 0.4 uM by DAPI staining based immunofluorescence microscopic analysis; assay type: functional, cell-based; conditions: dose 0.1-0.4 µM
[21] = target: T1, Platelet-derived growth factor receptor beta; experiment: Inhibition of PDGFRbeta-mediated downstream signalling in human MG-63 cells assessed as suppression of AKT phosphorylation at 0.1 uM measured after 48 hrs by western blot analysis; assay type: cell-based
[22] = target: T1, Platelet-derived growth factor receptor beta; experiment: Inhibition of PDGFRbeta in PDGF AA/BB stimulated human MNNG/HOS cells assessed as reduction in fluorescence intensity measured after 48 hrs by DAPI staining based immunofluorescence analysis; assay type: cell-based; conditions: dose 0.1-0.4 µM, DDE = dose-dependent effect
MG-63 [23] = experiment: Inhibition of cell adhesion in human MG-63 cells at 0.1 to 0.4 uM measured after 48 hrs by crystal violet staining based analysis; assay type: functional; conditions: dose 0.1-0.4 µM
HOS-TE85 [24] = experiment: Inhibition of cell invasion in human MNNG/HOS cells at 0.1 to 0.4 uM measured after 48 hrs by crystal violet staining based transwell assay; assay type: functional; conditions: dose 0.1-0.4 µM
HOS-TE85 [25] = experiment: Inhibition of alpha tubulin expression in human MNNG/HOS cells assessed as effect on microtubule network at 0.1 to 0.4 uM by DAPI staining based immunofluorescence microscopic analysis; assay type: functional, cell-based; conditions: dose 0.1-0.4 µM
[26] = target: Focal adhesion kinase 1 (Homo sapiens) (UniProt Q05397); experiment: Inhibition of FAK phosphorylation in human MNNG/HOS cells incubated for 48 hrs by Western blot analysis; assay type: cell-based; conditions: dose 0.1-0.4 µM, DDE = dose-dependent effect
HOS-TE85 [27] = experiment: Inhibition of colony formation in human MNNG/HOS cells by crystal violet staining based analysis; assay type: functional, cell-based; conditions: dose 0.1-0.4 µM, DDE = dose-dependent effect
HOS-TE85 [28] = experiment: In vivo inhibition of PDGFRbeta-mediated downstream signalling in human MNNG/HOS cells xenografted in BALB/c nude mouse assessed as phosphorylation of ERK in tumor tissue at 15 to 30 mg/kg/day, po for 14 days; assay type: functional, organism-based; conditions: dose lower […], dose upper 30.0 mg/kg/day, time 14.0 day
HOS-TE85 [29] = experiment: In vivo inhibition of PDGFRbeta-mediated downstream signalling in human MNNG/HOS cells xenografted in BALB/c nude mouse assessed as phosphorylation of STAT3 in tumor tissue at 15 to 30 mg/kg/day, po for 14 days; assay type: functional, organism-based; conditions: dose lower […], dose upper 30.0 mg/kg/day, time 14.0 day
HOS-TE85 [30] = experiment: Induction of apoptosis in human MNNG/HOS cells at 0.4 uM after 48 hrs by Annexin V/PI staining based flow cytometric analysis; assay type: functional, cell-based
HOS-TE85 [31] = experiment: In vivo inhibition of PDGFRbeta-mediated downstream signalling in human MNNG/HOS cells xenografted in BALB/c nude mouse assessed as phosphorylation of AKT in tumor tissue at 15 to 30 mg/kg/day, po for 14 days; assay type: functional, organism-based; conditions: dose lower […], dose upper 30.0 mg/kg/day, time 14.0 day
HOS-TE85 [32] = experiment: Inhibition of PDGF AA/BB-stimulated human MNNG/HOS cell proliferation measured after 48 hrs by MTT assay; assay type: functional, cell-based; conditions: dose 0.1-1.6 µM, DDE = dose-dependent effect
[33] = target: Platelet-derived growth factor receptor alpha (Homo sapiens, UniProt P16234); experiment: Binding affinity to PDGFRalpha (unknown origin)
Chain of Platelet-derived growth factor receptor alpha (P16234 whole entry): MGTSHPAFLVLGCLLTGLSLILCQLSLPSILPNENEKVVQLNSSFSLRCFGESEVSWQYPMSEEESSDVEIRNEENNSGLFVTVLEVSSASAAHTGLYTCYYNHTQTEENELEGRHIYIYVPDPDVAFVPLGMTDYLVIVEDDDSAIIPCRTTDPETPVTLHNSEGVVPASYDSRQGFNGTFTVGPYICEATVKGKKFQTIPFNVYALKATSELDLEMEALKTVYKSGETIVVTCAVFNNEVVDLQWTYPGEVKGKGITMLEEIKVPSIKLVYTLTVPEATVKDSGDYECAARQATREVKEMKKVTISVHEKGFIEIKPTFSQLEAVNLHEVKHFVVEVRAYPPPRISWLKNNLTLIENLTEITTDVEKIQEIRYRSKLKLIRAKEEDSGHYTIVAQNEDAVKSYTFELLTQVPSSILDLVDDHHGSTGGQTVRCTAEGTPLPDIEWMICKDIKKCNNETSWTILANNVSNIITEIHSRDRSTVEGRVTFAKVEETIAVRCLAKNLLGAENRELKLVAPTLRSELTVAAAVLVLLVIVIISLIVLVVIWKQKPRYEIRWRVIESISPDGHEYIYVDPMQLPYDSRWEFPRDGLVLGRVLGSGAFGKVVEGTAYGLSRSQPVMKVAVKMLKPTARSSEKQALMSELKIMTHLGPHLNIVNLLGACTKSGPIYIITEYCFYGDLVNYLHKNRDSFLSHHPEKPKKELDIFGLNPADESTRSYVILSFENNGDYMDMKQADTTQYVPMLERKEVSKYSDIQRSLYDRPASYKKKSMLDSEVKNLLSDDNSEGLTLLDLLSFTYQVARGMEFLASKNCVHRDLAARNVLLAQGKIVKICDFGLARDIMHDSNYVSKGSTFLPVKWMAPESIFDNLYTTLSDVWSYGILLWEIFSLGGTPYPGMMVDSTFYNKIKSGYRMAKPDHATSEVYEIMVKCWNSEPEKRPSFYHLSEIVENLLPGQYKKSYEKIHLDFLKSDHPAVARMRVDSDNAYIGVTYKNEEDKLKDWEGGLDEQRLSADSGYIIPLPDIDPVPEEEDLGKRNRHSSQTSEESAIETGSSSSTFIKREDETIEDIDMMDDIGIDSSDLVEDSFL

MG-63 [34] = experiment: Inhibition of cell invasion in human MG-63 cells at 0.1 to 0.4 uM measured after 48 hrs by crystal violet staining based transwell assay; assay type: functional; conditions: dose 0.1-0.4 µM
MG-63 [35] = experiment: Induction of DNA damage in human MG-63 cells assessed as tail DNA at 0.1 to 0.4 uM measured after 48 hrs by comet assay; assay type: functional, cell-based; conditions: dose 0.1-0.4 µM
[36] = target: T1, Platelet-derived growth factor receptor beta; experiment: Inhibition of PDGFRbeta-mediated downstream signalling in human MNNG/HOS cells assessed as suppression of AKT phosphorylation at 0.1 to 0.4 uM measured after 48 hrs by western blot analysis; assay type: cell-based; conditions: dose 0.1-0.4 µM
HOS-TE85 [37] = experiment: In vivo inhibition of PDGFRbeta-mediated downstream signalling in human MNNG/HOS cells xenografted in BALB/c nude mouse assessed as phosphorylation of PDGFR in tumor tissue at 15 to 30 mg/kg/day, po for 14 days; assay type: functional, organism-based; conditions: dose lower […], dose upper 30.0 mg/kg/day, time 14.0 day

inhibition [4]: Dde
inhibition [12]: Active
inhibition [15]: Dde
inhibition [16]: Active
inhibition [21]: Active
inhibition [22]: Dde
inhibition [26]: Dde
Activity [33]: Active
inhibition [36]: Active
SMILES: CCN1CCN(c2ccc(Nc3ncc(C)c(Nc4ccc5cn[nH]c5c4)n3)cc2OC)CC1
Activity (HOS-TE85 [1]): Active
Activity (MG-63 [2]): Dde
inhibition (MG-63 [3]): Active
Activity (HOS-TE85 [5]): Active
Activity (HOS-TE85 [6]): Dde
Activity (MG-63 [7]): Active
inhibition (HOS-TE85 [8]): Active
inhibition (HOS-TE85 [9]): Active
inhibition (HOS-TE85 [10]): Dde
Activity (MG-63 [11]): Active
inhibition (MG-63 [13]): Active
Activity (MG-63 [14]): Dde
inhibition (MG-63 [17]): Dde
inhibition (MG-63 [18]): Dde
inhibition (HOS-TE85 [19]): Active
inhibition (MG-63 [20]): Active
inhibition (MG-63 [23]): Active
inhibition (HOS-TE85 [24]): Active
inhibition (HOS-TE85 [25]): Active
inhibition (HOS-TE85 [27]): Dde
inhibition (HOS-TE85 [28]): Active
inhibition (HOS-TE85 [29]): Active
Activity (HOS-TE85 [30]): Active
inhibition (HOS-TE85 [31]): Active
inhibition (HOS-TE85 [32]): Dde
inhibition (MG-63 [34]): Active
Activity (MG-63 [35]): Active
inhibition (HOS-TE85 [37]): Active
